{
  "source": "paper PMC3646888",
  "about": "(PLoS ONE, 2013)",
  "target": "T1, CYP1A2r (Rattus norvegicus, UniProt P04799)",
  "T1 sequence (P04799 1-513)": "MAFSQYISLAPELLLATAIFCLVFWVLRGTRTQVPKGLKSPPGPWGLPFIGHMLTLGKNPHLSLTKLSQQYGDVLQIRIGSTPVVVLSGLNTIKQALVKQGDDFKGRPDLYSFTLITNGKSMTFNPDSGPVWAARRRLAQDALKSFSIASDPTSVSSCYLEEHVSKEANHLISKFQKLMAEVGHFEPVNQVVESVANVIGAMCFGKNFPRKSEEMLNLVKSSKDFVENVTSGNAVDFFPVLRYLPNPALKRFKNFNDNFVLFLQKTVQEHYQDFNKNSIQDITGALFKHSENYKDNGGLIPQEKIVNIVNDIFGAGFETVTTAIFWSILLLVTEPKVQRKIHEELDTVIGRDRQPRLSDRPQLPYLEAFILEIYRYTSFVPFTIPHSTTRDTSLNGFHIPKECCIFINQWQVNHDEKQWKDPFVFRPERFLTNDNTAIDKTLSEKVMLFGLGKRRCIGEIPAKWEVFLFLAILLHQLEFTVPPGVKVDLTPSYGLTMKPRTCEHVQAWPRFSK",
  "experiment": "Fluorescence-based CYP assay, recombinant CYP1A2r, substrate EFC",
  "format": "in vitro ADME",
  "settings": "concentrations up to 80 µM",
  "procedure": "These assays were performed by methods similar to those described by VanAlstine and Hough, Stresser et al., Wulff et al., Henderson et al., and Crespi et al., with minor modifications. All incubations were performed in a final volume of 200 µL of 50 mM potassium phosphate buffer at pH 7.4 containing 1% acetonitrile. CYP inhibitor studies were performed according to the parameters of Table 1. Substrate concentrations were chosen to be near known Km values. As described in the references cited, two different NADPH regenerating systems were used depending on the substrates used (Table 1). […] Samples were pre-incubated at 37°C for the designated times, and the reactions were initiated with the addition of a substrate and enzyme mixtures (Table 1). […] For the assays utilizing the “high” regenerating system, enzyme reactions were terminated at the designated time by the addition of 75 µL of 2N NaOH, followed by a 2 h post-incubation at 37°C. Product formation was then measured at the designated wavelengths (Table 1). For the “low” regenerating system assays, blanks and standards were prepared in 0.1 mL buffer without the regenerating system. For the “high” regenerating system assays, blanks and standards containing 0.1 mL of buffer received 75 µL of 2N NaOH following pre-incubation.",
  "data": [
    {"smiles": "Clc1ccc(COC(Cn2ccnc2)c2ccc(Cl)cc2Cl)c(Cl)c1", "note": "(stereo not shown) [miconazole]", "values": [
      {"measurement": "Inhibition of CYP1A2r (in words)", "value": "did not inhibit"}
    ]}
  ]
}
